Patent publication US10513519B2, “Solid forms of (1S,4S)-4-(2-(((3S,4R)-3-fluorotetrahydro-2H-pyran-4-yl)amino)-8-((2,4,6-trichlorophenyl)amino)-9H-purin-9-yl)-1-methylcyclohexane-1-carboxamide and methods of their use” (Signal Pharmaceuticals, LLC, priority 2016, dated 2019)

How the values were obtained:
[1] = test system: LOX-IMVI xenograft; test: LOX-IMVI subcutaneous melanoma xenograft model; format: in vivo, SCID mice
Protocol: For xenograft model studies human cancer cell lines were injected into SCID (severe combined immunodeficiency) mice. Cancer cell lines were propagated in culture in vitro. Tumor bearing animals were generated by injecting precisely determined numbers of cells into mice. Following inoculation of animals, the tumors were allowed to grow to a certain size prior to randomization. The mice bearing xenograft tumors ranging between pre-determined sizes were pooled together and randomized into various treatment groups. A typical efficacy study design involved administering one or more compounds at various dose levels to tumor-bearing mice. Additionally, reference chemotherapeutic agents (positive control) and negative controls were similarly administered and maintained. Tumor measurements and body weights were taken over the course of the study.
Mice were anesthetized with inhaled isoflurane and then inoculated with LOX-IMVI tumor cells subcutaneously above the right hind leg with 0.1 mL of a single cell suspension in PBS using a sterile 1 mL syringe fitted with a 26-gauge needle. Following inoculation of the animals, tumors were allowed to grow to approximately 75-125 mm^3 or in some cases 250-400 mm^3 prior to randomization of the mice. The tumor of each animal was measured and animals with tumors in the appropriate range were included in the study. Animals from the study pool were then distributed randomly into various cages and the cages were randomly assigned to vehicle, positive control, or test article groups. All of the mice were tagged with metal ear tags on the right ear. A typical group consisted of 8-10 animals. For a typical xenograft study, SCID mice bearing tumors were randomized and dosed with compounds ranging from, for example, 100 mg/kg to 0.1 mg/kg with different dose scheduling, including, but not limited to, qd, q2d, q3d, q5d, q7d and bid. The mice were dosed for 1-4 weeks. Tumors were measured twice a week using calipers and tumor volumes were calculated using the formula of W^2×L/2.
The purpose of this study was to confirm the efficacy of Compound 1 in the LOX-IMVI melanoma xenograft model.
In a separate experiment, Compound 1 was administered orally, QD for 8 days at 0.2, 1, 5, 10, and 15 mg/kg.

[2] = test system: PD-L1 in HOP62, KARPAS-299, and LOX-IMVI; test: PD-L1 expression by Western blot; format: cell-based; settings: HOP62, KARPAS-299, and LOX-IMVI (BRAF V600E)
Protocol: The effect of Compound 1 was evaluated on PD-L1 expression levels. Cells were cultured in presence or absence of Compound 1 for indicated time before expression levels of PD-L1, DUSP4 and α-tubulin or α-actin were measured by Western blot. To detect surface levels of PD-L1, cells were treated with DMSO or Compound 1 at indicated concentrations for 48 h and cell surface expression of PD-L1 was detected using flow cytometry analysis (FACS) with an APC-labeled antibody to PD-L1 (clone 29E.1A3.; BioLegend, San Diego, Calif.). Geometric mean of PD-L1 positive cells was determined by FlowJo 10 (Treestar, Ashland, Oreg.).

C[C@]1(C(N)=O)CC[C@@H](n2c(Nc3c(Cl)cc(Cl)cc3Cl)nc3cnc(N[C@@H]4CCOC[C@H]4F)nc32)CC1 [Compound 1, cis-4-[2-{[(3S,4R)-3-fluorooxan-4-yl]amino}-8-(2,4,6-trichloroanilino)-9H-purin-9-yl]-1-methylcyclohexane-1-carboxamide]
tumor regression ([1]; 10 and 15 mg/kg, orally, QD for 8 days): Tumor regression was observed
animals with tumor regression ([1]; 15 and 30 mg/kg, both dose levels): 9 out of 9
animals tumor free at study end ([1]; 15 and 30 mg/kg, each group): 1 out of 9
tumor volume compared to the vehicle control ([1]; 15 and 30 mg/kg, p<0.001 for both dose levels): significant tumor volume reduction
antitumor activity ([1]; orally, QD for 8 days at 0.2, 1, 5, 10, and 15 mg/kg): Dose-dependent antitumor activity
PD-L1 expression [2]: directly inhibits PD-L1 expression
